Columns and labels:
Amniotic cells = assay: Slide in situ hybridization, effect of DMSO (Example 1), amniotic cells, Y probe; assay type: cell-based, human; details: assay solution HC + 10% DMSO
From the text: (§1) The Y probe (also referred to as the HYR probe) was a collection of oligonucleotides specific for human Y chromosome α-satellite DNA repeated sequences; where the probe was to be detected under a fluorescent microscope, it was labeled at its 5' end, via an Aminolink linker molecule (aminohexyl, from Applied Biosystems, Inc.), to a Texas Red Moiety.
Amniotic cells were obtained by standard amniocentesis procedure.
(§2) Slide in situ Cell Preparation and Hybridization Protocol
(§3) 1) Cells were suspended in a fixative (3 vol ethanol plus 1 vol methanol) and transferred to glass slides by centrifugation using a Cytospin apparatus.
(§4) 2) The assay solution (consisting of the hybridization cocktail HC alone or mixed with a compound or compounds being tested as an enhancer) with the DNA probe (25 ul) was placed over the cells and covered with a coverslip.
(§5) 3) The slide was heated at 90° C. for 5 minutes for DNA denaturation, then incubated at 46° C. for 30 minutes for hybridization.
(§6) 4) Cells were washed once with the wash solution #1, which was equilibrated at 42° C. Then cells were washed ten times with wash solution #2, which was equilibrated at 42° C.
(§7) 5) Mounting solution (50% glycerol (v/v) in 1×PBS plus the nuclear stain Hoechst, (#33258; 1 ug/ml) was placed on the cells and covered with a coverslip. […]

Hepg 2 cells = assay: Slide in situ hybridization, DMSO plus one additional compound (Example 2), HYR probe; assay type: cell-based, human
Method: as §2, §3, §4, §5, §6
5) Mounting solution (50% glycerol (v/v) in 1×PBS plus the nuclear stain Hoechst, (#33258; 1 ug/ml) was placed on the cells and covered with a coverslip.
6) The hybridization signal was observed under an Olympus BH10 microscope with fluorescent capabilities using a rhodamine derivative filters (excitation wavelength of 567 nm, emission wavelength of 584 nm).
The inclusion of DMSO in an in situ assay solution increased the permeation of the nucleic acid probes into the cells and gave hybridization signal in over 95% of the cells. In this Example, we show the effect of adding, in addition to DMSO, 10 percent (v/v) of an additional compound to the assay solution. The additional compounds added were: squalane (an aliphatic alkane), dodecyl alcohol (an alcohol), beta-cyclodextrin (a sugar), isopropyl palmitate (a fatty acid ester), 1,2, propanediol (an alcohol), pyrrolidinone (a lactam) and hexamethyldisiloxane (an organic silane).
In this Example, the hybridization cocktail consisted of nine volumes of HC-DMSO plus one volume of an additional compound. In the control sample, one volume of water was added instead of one volume of additional compound. As a result, in all samples, the concentration of DMSO in the cocktail was 9 percent (v/v).
The Slide In Situ Cell Preparation and Hybridization protocol was followed. The cells used were Hepg 2 cells. The probe used was an HYR probe specific for human Y chromosome α-satellite DNA repeated sequences; at its 5' end, via an Aminolink linker molecule, the probe was linked to a Texas Red moiety. A signal intensity of 4 was assigned to the slide in which the assay solution was HC plus 10% DMSO (control slide) and all other slides were rated 1, 2, 3 or 4 in comparison to the control slide, depending on whether the intensity was 1, 2, 3, or 4 times that of the control slide, respectively.
The results are an average of four independent experiments.

[1] = test system: WBC cells (white blood cells); assay: Slide in situ hybridization, effect of DMSO (Example 1), WBC cells, Y probe; assay type: cell-based, human; details: assay solution HC + 10% DMSO
From the text: as §1
WBC cells (white blood cells) were obtained from a healthy human.
as §2, §3, §4, §5, §6, §7

Hepg2 cells = assay: Slide in situ hybridization, effect of DMSO (Example 1), Hepg2 cells, Y probe; assay type: cell-based, human; details: assay solution HC + 10% DMSO
From the text: Hepg2 cells were a human cell line (American Type Culture Collection number, ATCC-HB8065).
In this Example, the slide in situ cell preparation and hybridization protocol was followed.

Hela cells = assay: Liquid in situ hybridization with flow cytometry, DMSO plus additional compound (Example 4), 28S RNA and NR probes; assay type: cell-based
From the text: A Coulter Profile II flow cytometer was used for flow cytometry. With FITC as the probe dye, the filter for LFL3 was a 635 nm long pass filter and the filter for LFL1 was a 540 bp filter; the excitation wavelength was 488 nm. PMT1 and PMT3 settings were adjusted as required. A typical useful setting when fluorescein is the dye moiety is to have a PMT1 setting of 1100, a PMT3 setting of 900, and color compensation (PMT1, PMT3) of 15 percent.
Liquid in Situ Cell Preparation and Hybridization Protocol
1. Cells were fixed in solution F, then resuspended in 2x SSC.
2. The cells were spun out of solution and resuspended in an assay solution (consisting of the hybridization cocktail HC alone or in combination with a compound or compounds being tested as an enhancer.)
3. After 30 min. at 42° C., the cells were washed in wash solution #1 preheated to 42° C. by centrifuging them out of the assay solution.
4. Cells were next washed in wash solution #2 preheated to 42° C.
5. Cells were resuspended in a 1X PBS solution containing 0.002% trypan blue as a counterstain.
6. Cells were run on a flow cytometer and a "Count vs. LFL1" histogram was generated. ("Count" refers to cell count.) This histogram was used as the basis for determining the mean LFL1.
The effect on probe signal intensity of adding, in addition to DMSO, additional compounds to the assay solution was determined in an in situ liquid hybridization assay. The data was analyzed by flow cytometry.
The Liquid In Situ Cell Preparation and Hybridization Protocol was followed. The cells used were Hela cells. The probes used were a 28S RNA probe (SEQ ID NO: 1) and an NR probe.
The 28S RNA probe (SEQ ID NO: 1) is a target-specific probe specific for ribosomal RNA fluorescence obtained with it represents the sum of fluorescence from target-bound probe, non-specifically bound probe and autofluorescence from cellular molecules. The NR probe (SEQ ID NO: 2) is specific for a plant nucleic acid sequence and, in the current Example, the fluorescence obtained with it represent the sum of fluorescence from non-specifically bound probe and autofluorescence.
In this experiment, the hybridization cocktail consisted of nine volumes of HC-DMSO plus one volume of additional compound. In the control sample, one volume of water replaced the one volume of additional compound. As a result, in all samples, the concentration of DMSO was 9 percent (v/v).
The ratio, 28S/NR, is the ratio of the mean LFL1 observed with the 28S RNA probe (SEQ ID NO: 1) to the mean LFL1 observed with the NR probe (SEQ ID NO: 2). The results in the "28S RNA probe" and "NR probe" columns give the mean LFL1 observed with the 28S RNA and NR probes, respectively (SEQ ID NO: 1 and SEQ ID NO: 2, respectively).

[2] = test system: Human female white blood cells (karyotype XX); assay: Signal enhancers in the mounting solution after in situ hybridization (Example 6), HXR probes, fluorescent microscope; assay type: cell-based; details: one volume compound plus 9 volumes mounting solution; rhodamine HXR probes; water control = 1
Method: After the in situ hybridization step, the cells were washed and then modified mounting solution was added and cells were observed under the microscope for fluorescence signal. Modified mounting solution was 9 volumes of mounting solution and one volume of additional compound, which was the compound being tested for its ability to be a signal enhancer. Mounting solution consisted of 0.1% 1,4 diphenylamine (antifade) in 50% glycerol (v/v), and nuclear stain Hoechst (#33258; 1 ug/ml).
Human female white blood cells (karyotype XX) were hybridized at 85° C. for 15 minutes with female chromosome HXR probes labelled with a rhodamine fluor. Cells were washed with wash buffers #1 and #2, and then suspended in a modified mounting solution. The additional compound in the modified mounting solution was varied; as a control, water was used as the additional compound. The signal intensity was observed under the fluorescent microscope.

[3] = test system: Human female white blood cells (karyotype XX); assay: as above; assay type: cell-based; details: not further described

Structure (SMILES) | Fluorescent Signal intensity (Scale of 1 to 4) (Amniotic cells) | Cells giving hybridization signal (Hepg 2 cells; DMSO included in in situ assay solution, cells not specified (opening statement of Example 2)) | Fluorescent Signal intensity (Scale of 1 to 4) [1] | Fluorescent Signal intensity (Scale of 1 to 4) (Hepg2 cells) | Optimal DMSO concentration for signal brightness (Hela cells; DMSO alone, nine percent) | Fluorescent signal (Scale of 1 to 4) (Hepg 2 cells; 10% (v/v) additional compound with 9% DMSO, slide rating x 0.5, water control = 2, average of four experiments) | Signal Intensity Scale of 1 to 4 [2] | Effect on signal in an earlier experiment [3] | 28S RNA Probe, mean LFL1 (Hela cells; 10% additional compound with 9% DMSO, FITC 28S RNA probe, water control 6.070, average of four experiments) | NR Probe, mean LFL1 (Hela cells; 10% additional compound with 9% DMSO, FITC NR probe (non-specific binding and autofluorescence), water control 0.137) | Ratio 28S RNA/NR (ratio of mean LFL1) (Hela cells; 10% additional compound with 9% DMSO, water control 44)
C[S+](C)[O-] [DMSO, dimethyl sulfoxide] | 4 | over 95% | 4 | 4 | at or close to the optimal DMSO concentration for signal brightness |  |  |  |  |  | 
CCCCCCCCCCCCO [dodecyl alcohol] |  |  |  |  |  | 2 | 4 | decrease in signal | 4.804 | 0.142 | 34
